Reference: paper PMC11984586, “A novel spider toxin as a selective antagonist of the Kv1 subfamily of voltage-gated potassium channels through gating modulation” (The Journal of Biological Chemistry, 2025)
Read-outs that look alike come from different tables or passages of the source. Bridge positions count the residues as written; N and C are the ends. Peptide text beside a SMILES is read from it.

What was measured:
Assay type in all cases: cell-based
[1] = biological target: T1, Kv1.3/L347I (Homo sapiens, UniProt P22001, L347I); assay: Whole-cell patch clamp, Kv1.3 point mutant; conditions: +30 mV stimulus, mean ± SD, n = 5, read-out: IC50, Kv1.3/L347I current
T1 construct: expressed in transfected cells; host or cells: CHO-K1
Text: (§1) In contrast, differences at positions 347, 355, and 358 between Kv1.3 and Kv1.1 prompted further analysis. To explore whether these discrepancies influence peptide-mediated inhibition, we substituted these residues in Kv1.3 with their homologous counterparts in Kv1.1 and assessed the MrVIII's inhibitory efficacy on these single-point mutants. […] To further investigate this, we introduced double adjacent mutations around Q355 and M358 in Kv1.3 to explore potential synergistic effects on MrVIII's inhibitory activity.
(§2) The cDNA of hKv1.1, hKv1.2, hKv1.3, rKv1.4, hKv1.5, mKv1.6, and hKv1.7 were subcloned into mammalian expression vectors pcDNA3.1 or pCMV-blank vectors, as well as other plasmids described previously ([35]). Channel mutants were generated by site-directed mutations. Briefly, the parental channel plasmid was amplified using a pair of oppositely directed primers harboring the designed mutation site, with KOD Fx (TOYOBO Co, Ltd). The resulting PCR mix was treated with FastDigest DpnI (Thermo Fisher Scientific) to remove the methylated template. Ten microliters of the digested product was then used to transform 100 μl E. coli DH5α competent cells. […]
(§3) CHO-K1 cells were selected for expressing Kv channels due to their lack of endogenous Kv channels, while HEK293 or ND7/23 cells were used for Nav and Cav channel expression. […] After 4 to 6 h transfection, cells were seeded onto poly-lysine–coated coverslips, and 24 to 36 h later, transfected cells were ready for patch-clamp analysis. […]
(§4) For Kv current recordings, the bath solution contained (in mM) the following: 140 NaCl, 5 KCl, 1 MgCl2, 2 CaCl2, 10 glucose, and 10 Hepes (pH 7.3, adjusted with NaOH), and the pipette solution contained (in mM) the following: 140 KCl, 2.5 MgCl2, 11 EGTA, and 10 Hepes (pH 7.3, adjusted with KOH). […] Whole cell conductance (G) at each depolarizing voltage (V) was determined using the equation: G = I/(V−Vrev), where I is the current amplitude, and Vrev is the reversal potential. […] The steady-state fast inactivation of Kv1.3 was measured using a two-pulses protocol. […]

[2] = biological target: T2, Kv1.3/Q355E (Homo sapiens, UniProt P22001, Q355E); assay: Whole-cell patch clamp, Kv1.3 point mutant; conditions: +30 mV stimulus, mean ± SD, n = 5, read-out: IC50, Kv1.3/Q355E current
T2 construct: expressed in transfected cells; host or cells: CHO-K1
Text: as §1, §2, §3, §4

[3] = biological target: T3, Kv1.3/M358T (Homo sapiens, UniProt P22001, M358T); assay: Whole-cell patch clamp, Kv1.3 point mutant; conditions: +30 mV stimulus, mean ± SD, n = 5, read-out: IC50, Kv1.3/M358T current
T3 construct: expressed in transfected cells; host or cells: CHO-K1
Text: as §1, §2, §3, §4

[4] = biological target: T4, Kv1.3/I472C mutant (Kv1.3∗) (Homo sapiens, UniProt P22001, I472C); assay: Gating-current recording, Kv1.3* in HEK293T cells; conditions: mean ± SD; for IC50: held at −100 mV, 50 ms depolarization to +30 mV, HEK293T
T4 construct: expressed in transfected cells; host or cells: HEK293T
Description: The cDNA of hKv1.1, hKv1.2, hKv1.3, rKv1.4, hKv1.5, mKv1.6, and hKv1.7 were subcloned into mammalian expression vectors pcDNA3.1 or pCMV-blank vectors, as well as other plasmids described previously ([35]). Channel mutants were generated by site-directed mutations. Briefly, the parental channel plasmid was amplified using a pair of oppositely directed primers harboring the designed mutation site, with KOD Fx (TOYOBO Co, Ltd). The resulting PCR mix was treated with FastDigest DpnI (Thermo Fisher Scientific) to remove the methylated template. Ten microliters of the digested product was then used to transform 100 μl E. coli DH5α competent cells. Transformants were randomly picked and sequenced to confirm the presence of the intended mutation.
CHO-K1 cells were selected for expressing Kv channels due to their lack of endogenous Kv channels, while HEK293 or ND7/23 cells were used for Nav and Cav channel expression. CHO-K1 cells were cultured in a Dulbecco's modified Eagle's medium/Ham's F-12 nutrient mixture (DMEM-F12) medium, and HEK293T and ND7/23 cells in DMEM medium, all supplemented with 10% fetal bovine serum and 1% penicillin-streptomycin (all from Gibco, Thermo Fisher Scientific, Inc) under standard conditions (37 °C, 5% CO2, and saturated humidity). These cell lines were purchased from Stem Cell Bank, Chinese Academy of Sciences. Channel plasmids were cotransfected with pEGFP-N1 (encoding GFP) into the respective cells using lipofectamine 2000, following the manufacturer's instructions (Invitrogen, Thermo Fisher Scientific, Inc.). […] After 4 to 6 h transfection, cells were seeded onto poly-lysine–coated coverslips, and 24 to 36 h later, transfected cells were ready for patch-clamp analysis. […]
Gating currents were recorded by transfecting HEK293T cells with a saturating dose of plasmid to ensure maximal channel expression. […] Gating charge movement (Q) was determined by integrating the area under the IgON and IgOFF traces, representing voltage sensor movement in response to depolarizing pulses. […]

T4 sequence (P22001 whole entry I472C): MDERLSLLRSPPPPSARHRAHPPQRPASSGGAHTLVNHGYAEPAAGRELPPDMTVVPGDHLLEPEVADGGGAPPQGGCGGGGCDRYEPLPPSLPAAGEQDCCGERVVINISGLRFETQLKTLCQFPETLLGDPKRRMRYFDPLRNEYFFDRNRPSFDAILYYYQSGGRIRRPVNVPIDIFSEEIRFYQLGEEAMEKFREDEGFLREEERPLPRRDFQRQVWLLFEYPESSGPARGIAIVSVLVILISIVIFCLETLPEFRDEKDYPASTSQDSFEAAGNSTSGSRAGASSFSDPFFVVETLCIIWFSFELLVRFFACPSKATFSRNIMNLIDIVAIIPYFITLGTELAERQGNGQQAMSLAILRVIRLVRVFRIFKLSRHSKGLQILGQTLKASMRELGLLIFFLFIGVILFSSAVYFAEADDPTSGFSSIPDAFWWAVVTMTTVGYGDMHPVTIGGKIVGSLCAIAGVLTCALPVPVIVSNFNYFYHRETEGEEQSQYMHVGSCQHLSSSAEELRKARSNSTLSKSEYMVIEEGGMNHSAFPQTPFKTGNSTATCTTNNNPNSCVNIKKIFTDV
T2 sequence (P22001 whole entry Q355E): as the sequence (P22001 whole entry I472C) above, with Q355E, C472I counted along it
T3 sequence (P22001 whole entry M358T): as the sequence (P22001 whole entry I472C) above, with M358T, C472I counted along it
T1 sequence (P22001 whole entry L347I): as the sequence (P22001 whole entry I472C) above, with L347I, C472I counted along it

## CC[C@H](C)[C@@H]1NC(=O)[C@H](Cc2ccc(O)cc2)NC(=O)[C@H](CCC(N)=O)NC(=O)[C@@H]2CCCN2C(=O)[C@@H]2CSSC[C@H](NC(=O)[C@H](C)NC(=O)[C@H](CO)NC(=O)[C@H](CCC(=O)O)NC(=O)[C@H](CCC(=O)O)NC(=O)[C@@H](N)[C@@H](C)O)C(=O)NCC(=O)NCC(=O)N[C@@H](Cc3ccccc3)C(=O)N[C@@H](CC(N)=O)C(=O)N[C@@H](C)C(=O)N[C@@H](CCCNC(=N)N)C(=O)N[C@H]3CSSC[C@H](NC1=O)C(=O)N[C@@H](CCCCN)C(=O)NCC(=O)N[C@@H](Cc1c[nH]c4ccccc14)C(=O)N[C@@H](CCCNC(=N)N)C(=O)N[C@@H]([C@@H](C)O)C(=O)N[C@@H](CCCCN)C(=O)N[C@@H](CCCNC(=N)N)C(=O)N[C@H](C(=O)N[C@@H](CC(C)C)C(=O)N[C@@H](CC(N)=O)C(=O)N1CCC[C@H]1C(=O)O)CSSC[C@H](NC(=O)[C@H](CCCCN)NC(=O)[C@H](Cc1c[nH]cn1)NC(=O)[C@H](CC(C)C)NC(=O)[C@@H]1CCCN1C3=O)C(=O)N2 [MrVIII] (H-TEESACGGFNARCPLHKCCPQYICKGWRTKRCLNP-OH; disulfide 6-19, 13-24, 18-32; N-terminus and C-terminus assumed)
[1]
  IC50: 14.2 ± 0.8 nM
[2]
  IC50: 14.2 ± 7.2 nM
[3]
  IC50: 143 ± 33 nM
[4]; 5 nM MrVIII, before toxin −30.1 ± 7.1 mV, n = 5
  Va of Q-V relationship of Kv1.3∗ after toxin: −27.4 ± 10.3 mV
[4]; n = 8, read-out: IC50, inhibition of IgOFF gating current of Kv1.3∗
  IC50: 7 ± 4.2 nM
[4]; n = 8, read-out: IC50, inhibition of IgON gating current of Kv1.3∗
  IC50: 5 ± 3.4 nM
